# Laboratory results published in patent US20250325548A1, “TUMOR SUPPRESSOR P73 TRANSCRIPTIONALLY REGULATES C-FLIP TO IMPEDE ITS PRIMING OF EXTRINSIC APOPTOSIS WHILE AN EXAMPLE SWITCHER COMPOUND CB-7587351 DEGRADES C-FLIP PROTEIN” (Brown University, priority 2024, published 2025).
# Where a SMILES comes first, the peptide text is derived from it. The star is where a group is joined. Cbz = O=C(OCc1ccccc1)*; CH2F = FC*
# Key:
# p73 = biological target: T1, p73 (Homo sapiens, UniProt O15350); details: via releasing it from the inhibitory complex of mutant p53; cited from earlier work
# T1 sequence (O15350 1-636): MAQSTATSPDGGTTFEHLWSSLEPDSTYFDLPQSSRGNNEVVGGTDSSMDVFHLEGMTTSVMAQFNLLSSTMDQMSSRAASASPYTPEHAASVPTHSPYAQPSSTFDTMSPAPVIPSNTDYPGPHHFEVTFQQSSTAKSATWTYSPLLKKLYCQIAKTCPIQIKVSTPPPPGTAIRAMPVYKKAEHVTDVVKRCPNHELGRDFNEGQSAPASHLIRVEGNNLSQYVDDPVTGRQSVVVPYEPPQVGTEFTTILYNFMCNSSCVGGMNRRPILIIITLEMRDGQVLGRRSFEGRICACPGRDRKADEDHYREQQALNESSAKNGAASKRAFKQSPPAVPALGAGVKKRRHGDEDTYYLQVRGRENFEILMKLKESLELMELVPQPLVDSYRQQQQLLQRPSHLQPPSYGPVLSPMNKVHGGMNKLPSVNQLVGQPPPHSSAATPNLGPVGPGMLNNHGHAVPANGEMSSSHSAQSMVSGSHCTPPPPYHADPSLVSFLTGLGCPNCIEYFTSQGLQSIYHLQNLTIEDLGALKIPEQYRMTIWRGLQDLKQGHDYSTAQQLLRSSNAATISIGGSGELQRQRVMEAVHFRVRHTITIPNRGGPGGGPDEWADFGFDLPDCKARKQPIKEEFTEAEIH
# c-FLIP [1] = assay: Western blot of c-FLIP protein levels in cancer cells; type: cell-based, human
# Method: (§1) Western Blot analysis: An equal amount of protein in the cell lysate was loaded in each well and electrophoresed through 4-12% SDS-PAGE then transferred to a PVDF membrane. The primary antibodies indicated in the FIGs. were incubated with the PVDF membrane after transfer in blocking buffer at 4° C. overnight. Antibody binding was detected on PVDF with appropriate IR Dye-secondary antibodies (LI-COR Biosciences, USA) by the ODYSSEY infrared imaging system or with ECL Reagent (Thermo Fisher Scientific, catalog no. 32106) chemiluminescence reaction with appropriate horseradish peroxidase (HRP)-conjugated secondary antibodies (Thermo Fisher Scientific, catalog no. no. 31460 for Goad anti-rabbit IgG and catalog no. 31430 for Goat anti-mouse IgG) by the Syngene imaging system.
# c-FLIP [2] = assay: Real-time PCR of c-FLIP mRNA in cancer cells; type: cell-based, human; details: cancer cells treated with CB-7587351, Real-time PCR
# p53 reporter, PG13-luc = assay: PG13-luc p53-reporter bioluminescence assay; type: cell-based, human
# Method: Materials and Methods; High-Throughput Screening: Functional cell-based screening for small molecules that increase p53-transcriptional activity was performed as described in the previous study using noninvasive bioluminescence imaging in human colorectal cancer cells which stably express a p53 reporter, PG13-luc. […] DMSO treatment was used as a negative control in each screened plate. Compounds that increased p53-responsive bioluminescence were selected for secondary screening.
# p53 targets = assay: Western blot of endogenous p53 targets; type: cell-based, human
# Method: as §1
# p53 target genes = assay: Real-time RT-PCR of p53 target genes; type: cell-based, human; details: SW480 cells, 3 hr, normalized to GAPDH
# γ-H2AX = γ-H2AX phosphorylation (DNA damage) in SW480 cells; type: cell-based, human
# DNA = assay: DNA-intercalation test; details: not shown
# [3] = system: panel of cancer cell lines; assay: CellTiter-Glo cell viability, panel of cancer cell lines versus MRC-5; type: cell-based, human; details: cancer cells compared with normal fibroblast MRC-5 cells, 48 hr
# Method: […] Cell viability was measured by CellTiter-Glo bioluminescence (Promega, catalog no. G7572), and analyzed using an IVIS imager.
# cancer cells [4] = assay: Sub-G1 flow cytometric assay in cancer cells; type: cell-based, human
# Method: Flow Cytometry Assay: Briefly, cells were fixed with 70% ethanol, and stained with Propidium Iodide (PI), then subjected for CytoFLEX to measure DNA content of the PI-stained cells. Cell cycle distribution was analyzed with Flowjo.
# colorectal cancer cells = assay: Colony formation assay; type: cell-based, human
# caspase-3 = assay: Western blot of cleaved caspase-3; type: cell-based, human; details: cancer cells, early time points
# Method: as §1
# caspase-3/7 = assay: Caspase-3/7 activity assay; type: cell-based, human; details: DLD-1 cancer cells, 36 hours
# p53-mutant cancer cells = assay: Apoptosis by PARP cleavage and Annexin V after caspase knockdown; type: cell-based, human; details: CB-7587351 at 10 μM
# Method: Annexin V levels were measured using RealTime-Glo™ Annexin V assay kit (Promega). The bioluminescent Annexin V was analyzed using an IVIS imager.
# as §1
# Knockdown of gene expression by siRNA: Cells were transfected with siRNA using lipofectamine RNAiMAX (Life Technologies, catalog no. 13778075) as described in the protocol from the manufacturer.
# cancer cells [5] = assay: Cell viability and synergy assay with TRAIL in cancer cells; type: cell-based, human; details: tested doses
# Method: (§2) CellTiter-Glo luminescent Cell viability assay: Cells were seeded on 96-well plates with a density of 3000 cells/well and treated with small molecule compounds as desired for 72 hours. Cell viability was measured by CellTiter-Glo bioluminescence (Promega, catalog no. G7572), and analyzed using an IVIS imager.
# (§3) Statistical analysis: Statistical analyses were performed using the student's t-test or Anova with GraphPad Prism software. Statistical significance was determined by p<0.05. Combination indices were calculated using the Chou-Talalay method with CompuSyn software.
# normal cells = assay: Cell viability and synergy assay with TRAIL in normal cells; type: cell-based; details: tested doses
# Method: as §2, §3
# PARP = assay: Western blot of cleaved PARP with TRAIL combination; type: cell-based, human; details: cancer cells
# Method: as §1
smiles,measurement,setting,value
"O=C(CSC1=NCCS1)c1ccc(O)c(O)c1 [RETRA, 2-(4,5-Dihydro-1,3-thiazol-2-ylthio)-1-(3,4-dihydroxyphenyl)-1-ethanone]",activation of p73,p73,activate p73
"CCOc1cccc2c(C)nc(Nc3nc(=O)c4c([nH]3)CCCC4)nc12 [CB-7587351, 2-(8-Ethoxy-4-methyl-2-quinazolinylamino)-5,6,7,8-tetrahydro-4 (1H)-quinazolinone]",c-FLIP degradation after knockdown of CHIP or ITCH,"c-FLIP [1]; SW480, siRNA 48 hr then CB-7587351 8 hr",could not rescue c-FLIP
same,p73-mediated upregulation of c-FLIP protein,"c-FLIP [1]; SW480 cells with overexpression of p73, treatment 8 hr",reduced p73-mediated upregulation of c-FLIP protein
same,c-FLIP protein expression,"c-FLIP [1]; p53-mutant and p53 wild-type cancer cells, Western blot",reduced c-FLIP protein expression
same,c-FLIP expression at the mRNA level,c-FLIP [2],no significant changes
same,p53-responsive bioluminescence,"p53 reporter, PG13-luc; SW480, DLD1, HCT116 p53-/- and HCT116, dose dependent",strongly induced
same,effect on PG13-luc reporter with overexpression of p73-β or wild-type p53,"p53 reporter, PG13-luc; adenovirus infection, then CB-7587351 16 hr",further enhanced
same,PG-13-luciferase reporter after siRNA targeting p73,"p53 reporter, PG13-luc; p53-KO cancer cells",attenuated
same,p21 and puma expression after knockdown of p73,"p53 targets; DLD-1 cells, 8 hr",blocked the activation effect
same,endogenous p53 targets at the protein level,"p53 targets; p53-mutant and wild colorectal cancer cell lines, 16 hr",increased
same,selected p53 targets at the mRNA level,p53 target genes,slight increase
same,phosphorylation of γ-H2AX,"γ-H2AX; SW480 cells, increased dose, early time points",No phosphorylation
same,genotoxicity,γ-H2AX; conclusion from γ-H2AX and DNA-intercalation,little or no genotoxicity
same,DNA-intercalation,DNA,no DNA-intercalation was detected
same,"IC50s, cell viability",[3],much lower in cancer cells than those in normal fibroblast MRC-5 cells
same,sub-G1 content and Annexin V levels with overexpression of p73,"cancer cells [4]; Ad-p73 infection, 48 hr (sub-G1), 24 hours (Annexin)",enhanced the anti-tumor effect
same,sub-G1 content and PARP cleavage after knockdown of p73,"cancer cells [4]; DLD-1 cells, 72 hr (sub-G1), 48 h (PARP)",abrogated the effect
same,sub-G1 content,"cancer cells [4]; cancer cells, 48 hr",increase in sub-G1 content
same,colony formation,colorectal cancer cells,dramatically reduced
same,cleaved caspase-3,caspase-3,increase
same,caspase-3/7 activity,caspase-3/7,increase
same,"apoptosis (PARP cleavage, Annexin V) after knockdown of caspase-8",p53-mutant cancer cells,prevented apoptosis
same,synergy with TRAIL on cell viability,cancer cells [5],synergized with TRAIL
same,synergy with TRAIL on cell viability,normal cells,not in normal cells
same,TRAIL-induced PARP cleavage,PARP,enhanced TRAIL-induced PARP cleavage
"COC(=O)C[C@H](NC(=O)[C@H](C)NC(=O)[C@@H](NC(=O)OCc1ccccc1)C(C)C)C(=O)CF [z-VAD-FMK, reference compound] (Cbz-Val-Ala-Asp(OMe)-CH2F)",CB-7587351-induced apoptosis with pan-caspase inhibitor (sub-G1 assay),"cancer cells [4]; SW480, HT29, HCT116 p53-/- and HCT116",blocked the effect of CB-7587351 on apoptosis
"CC(C)C[C@@H](C=O)NC(=O)[C@H](CC(C)C)NC(=O)[C@H](CC(C)C)NC(=O)OCc1ccccc1 [MG132, reference compound] (Cbz-Leu-Leu-Leu-aldehyde)",c-FLIP protein under CB-7587351 plus proteasome inhibitor,c-FLIP [1]; cancer cells co-treated with MG132 and CB-7587351,rescued c-FLIP from the CB-7587351-induced protein degradation
"CN1CCN(C(=O)/C=C/c2ccc([N+](=O)[O-])o2)CC1 [NSC59984, (E)-1-(4-Methyl-1-piperazinyl)-3-(5-nitro-2-furyl)-2-propen-1-one]",activation of p73,p73,activate p73
